Measurements published in publication PMC10076671, “Spider venom-derived peptide JZTX-14 prevents migration and invasion of breast cancer cells via inhibition of sodium channels” (Frontiers in Pharmacology, 2023).
Where a SMILES comes first, the peptide text is derived from it. Bridges are numbered along the chain shown (N, C = ends).

Tests used:
[1] = system: human breast cancer cells; settings: ref Wannous et al., 2015; cited from earlier work
Excerpt: (§1) Voltage-gated sodium channels (Navs; VGSCs) are membrane proteins with nine isoforms responsible for the rapid upstroke of action potentials in excitable cells ([de Lera Ruiz and Kraus, 2015]). VGSCs are present in excitable and non-excitable cells, including microglia, astrocytes, immune cells, fibroblasts, and cancer cells, and play various biological roles, such as tumour cell migration and immune cell phagocytosis ([Black and Waxman, 2013]; [Roger et al., 2015]). Nav1.5, encoded by SCN5A, is an essential receptor in breast cancer growth and migration ([Rajaratinam et al., 2022]).

MDA-MB-231 cells [2] = settings: strongly metastatic MDA-MB-231 cells; ref Yang et al., 2012; cited from earlier work
Excerpt: as §1

MDA-MB-231 cells [3] = settings: ref Yang et al., 2012; cited from earlier work
Excerpt: Voltage-gated sodium channels (Navs; VGSCs) are membrane proteins with nine isoforms responsible for the rapid upstroke of action potentials in excitable cells ([de Lera Ruiz and Kraus, 2015]). VGSCs are present in excitable and non-excitable cells, including microglia, astrocytes, immune cells, fibroblasts, and cancer cells, and play various biological roles, such as tumour cell migration and immune cell phagocytosis ([Black and Waxman, 2013]; [Roger et al., 2015]). Nav1.5, encoded by SCN5A, is an essential receptor in breast cancer growth and migration ([Rajaratinam et al., 2022]). […] Nav1.5, a pore-forming alpha subunit of VGSC encoded by SCN5A, is not expressed in normal breast tissue or cells but is highly expressed in the breast cancer cell line MDA-MB-231 ([Dutta et al., 2018]). Elevated Nav1.5 expression promotes cell invasion and breakdown of extracellular matrix proteins, maintains ac ... || A peptide with anticancer activity was isolated and purified from animal venom to construct a new anticancer drug library. Compared to small-molecule drugs, peptide drugs have the advantages of high selectivity and affinity for molecular targets, and it is not easy to make tumours resistant to drugs ([Wu et al., 2014]). To date, many anticancer peptides have been screened from animal venom. […] Melittin, ...

breast cancer cell = settings: ref Driffort et al., 2014; cited from earlier work
Excerpt: as §1

Nav1.5 = assay type: cell-based; settings: Discussion: HEK293 cells heterologously expressing Nav1.5, 0.1 and 1 μM
Description: Sodium currents in experimental cells were recorded at room temperature (22°C–25°C) using an EPC-10 patch-clamp amplifier (HEKA, Germany) in a whole-cell patch-clamp configuration. Recording pipettes were made from borosilicate glass capillaries (VWR, United States) using a PC-10 puller (Narishige, Japan). The inner solution (mM): KCl 130, NaCl 15, CaCl2 0.37, MgCl2 1 EGTA 1, HEPES 10, pH 7.2, resistance was measured as 1.8 MO. The outer solution was composed of (mM): NaCl 140, KCl 3, MgCl2 1, CaCl2 1, HEPES 10, pH 7.2. To minimize voltage errors, the series resistance compensation was set to 80%. The P/4 protocol was used to subtract the linear capacitance and leakage current. Experimental data were acquired and analyzed using the pulse fit 8.0 program (HEKA, Germany). The needed concentrations of toxin dissolved in external solution were applied to the cell surface by microinjector.
To determine the biological activity of synthetic and natural JZTX-14 on Nav1.5, we observed their effects on HEK293T cells heterologously expressing Nav1.5 using a whole-cell voltage-clamp configuration. The current traces were induced by a 50 ms depolarisation potential of −30 mV at a holding potential of −100 mV. Currents were recorded by adding 0.1 μM and 0.5 μM of JZTX-14 to the solution.

breast cancer cells = settings: inhibiting the PI3K/Akt/mTOR signalling pathway, ref Lim et al., 2019; cited from earlier work
Excerpt: A peptide with anticancer activity was isolated and purified from animal venom to construct a new anticancer drug library. Compared to small-molecule drugs, peptide drugs have the advantages of high selectivity and affinity for molecular targets, and it is not easy to make tumours resistant to drugs ([Wu et al., 2014]). To date, many anticancer peptides have been screened from animal venom. […] Melittin, ...

Compound: CC/C=C\C/C=C\C/C=C\C/C=C\C/C=C\C/C=C\CCC(=O)O [DHA]
- Invasiveness of Nav1.5-dependent cancer cells [1]: reducing the invasiveness of Nav1.5-dependent cancer cells
- Nav1.5 current and NHE-1 activity [1]: inhibits Nav1.5 current and NHE-1 activity

Compound: O=C1NC(=O)C(c2ccccc2)(c2ccccc2)N1 [Phenytoin]
- Transient and persistent Na+ current (MDA-MB-231 cells [2]): inhibited the transient and persistent Na^+ current
- Migration and invasion (MDA-MB-231 cells [3]): significantly inhibiting the migration and invasion

Compound: COc1ccccc1OCC(O)CN1CCN(CC(=O)Nc2c(C)cccc2C)CC1 (stereo not shown) [Ranolazine]
- Nav1.5-mediated breast cancer cell invasiveness and lung colonisation (breast cancer cell): inhibits Nav1.5-mediated breast cancer cell invasiveness and lung colonisation

Compound: CC[C@H](C)[C@H](NC(=O)[C@@H]1CSSC[C@@H]2NC(=O)[C@@H]3CCCN3C(=O)[C@@H]3CCCN3C(=O)[C@H](CCC(N)=O)NC(=O)CNC(=O)[C@@H]3CCCN3C(=O)[C@H](Cc3c[nH]cn3)NC(=O)[C@@H]3CSSC[C@H](NC(=O)[C@H](C)NC(=O)[C@H](CC(C)C)NC(=O)CNC(=O)[C@H](CO)NC(=O)[C@H](CSSC[C@H](NC(=O)CN)C(=O)N[C@@H](CCC(N)=O)C(=O)N[C@@H](CCCCN)C(=O)N[C@@H](Cc4ccccc4)C(=O)N[C@@H](Cc4ccccc4)C(=O)N[C@@H](Cc4c[nH]c5ccccc45)C(=O)N[C@@H]([C@@H](C)O)C(=O)N3)NC2=O)C(=O)N[C@@H]([C@@H](C)O)C(=O)N[C@@H](Cc2c[nH]c3ccccc23)C(=O)N2CCC[C@H]2C(=O)N[C@@H]([C@@H](C)O)C(=O)N[C@@H](CCC(=O)O)C(=O)N[C@@H]([C@@H](C)CC)C(=O)N1)C(=O)N[C@@H](CC(C)C)C(N)=O [natural JZTX-14] (H-GCQKFFWTCHPGQPPCCSGLACTWPTEICIL-NH2; disulfide 2-17, 9-22, 16-29)
- Inhibition of Nav1.5 channels (in words) (Nav1.5): significantly inhibited Nav1.5 channels in a concentration-dependent manner

Compound: Melittin: the main peptide component of Apis mellifera venom
- EGF-induced cell movement and invasion (breast cancer cells): inhibits EGF-induced cell movement and invasion
